What was measured:
cruzain = cruzain (Trypanosoma cruzi, UniProt P25779); experiment: biochemical; conditions: for Cruzain 0’ Inhibition / Cruzain 10’ Inhibition: sheet "Screening results"
Method: (§1) Allison Doak and Prof. Brian Shoichet (University of California San Francisco, San Francisco, CA, USA) and Prof. Conor Caffrey (University of California San Diego, San Diego, CA, USA) generously provided recombinant cruzain and TbrCatL, respectively. In vitro activity of proteases cruzain and TbrCatL was assayed as previously described. Briefly, enzyme activity was measured by monitoring the cleavage of the fluorogenic substrate […] (Z-FR-AMC) at 25 °C. Fluorescence was monitored at 340/440 nm (excitation/emission) over 5–7 min in a Synergy2 Biotek plate reader. […] DMSO and 1 μM E-64 were employed as negative and positive controls, respectively, in all assays. Two conditions were employed for both enzymes: 10′ pre-incubation of the enzyme in the presence of the compound (10′ inc) and no pre-incubation (0′). Reported values correspond to the mean and standard error of the mean (SEM) and all analyses were performed using GraphPad Prism 6.0.
(§2) For the initial screening, compounds were assayed at 5 μM. […] IC50 curves were obtained from a non-linear fit of at least seven distinct compound concentrations, in triplicate. Reported IC50 values are the mean and SEM of two independent measurements.

TbrCatL = target: T1, TbrCatL (Trypanosoma brucei rhodesiense, UniProt Q95PM0); experiment: TbrCatL enzymatic inhibition assay (cleavage of fluorogenic substrate Z-FR-AMC); type: biochemical; conditions: for TbrCatL 0’ Inhibition / TbrCatL 10’ Inhibition: sheet "Screening results"
T1 construct: Conor Caffrey (University of California San Diego)
Method: as §1, §2

[1] = 0’ (no pre-incubation), sheet Screening results
[2] = 10’ (pre-incubation), sheet Screening results
[3] = 5 µM, PB library solutions, 10 min pre-incubation, vs DMSO control
[4] = 0’ (pre-incubation time), Pathogen Box screening results
[5] = 10’ (pre-incubation time), Pathogen Box screening results

Chain of cruzain (P25779 123-337 limits assumed): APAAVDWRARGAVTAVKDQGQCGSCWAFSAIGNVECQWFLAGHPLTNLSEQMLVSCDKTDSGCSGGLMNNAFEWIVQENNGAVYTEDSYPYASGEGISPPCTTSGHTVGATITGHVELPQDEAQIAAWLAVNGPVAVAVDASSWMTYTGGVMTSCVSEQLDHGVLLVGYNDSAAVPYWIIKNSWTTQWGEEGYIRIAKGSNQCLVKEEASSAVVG
T1 sequence (Q95PM0 entry or part of it): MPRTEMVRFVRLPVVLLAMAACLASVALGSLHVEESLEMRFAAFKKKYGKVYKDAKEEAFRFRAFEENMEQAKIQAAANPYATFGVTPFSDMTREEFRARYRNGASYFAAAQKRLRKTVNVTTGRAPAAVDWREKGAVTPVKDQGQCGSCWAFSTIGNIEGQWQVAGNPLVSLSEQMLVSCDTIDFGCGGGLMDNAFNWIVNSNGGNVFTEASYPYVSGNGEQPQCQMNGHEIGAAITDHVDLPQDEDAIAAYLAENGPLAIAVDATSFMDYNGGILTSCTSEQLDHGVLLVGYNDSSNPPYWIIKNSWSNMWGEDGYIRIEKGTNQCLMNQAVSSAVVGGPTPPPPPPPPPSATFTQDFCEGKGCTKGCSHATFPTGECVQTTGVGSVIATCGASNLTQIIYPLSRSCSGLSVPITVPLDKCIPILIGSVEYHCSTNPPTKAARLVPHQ

Row | Structure (SMILES) | Cruzain Inhibition 0’ (cruzain; [1]) [%] | Cruzain Inhibition 10’ (cruzain; [2]) [%] | TbrCatL Inhibition 0’ (TbrCatL; [1]) [%] | TbrCatL Inhibition 10’ (TbrCatL; [2]) [%] | Cruzain 0’ Inhibition (cruzain; 0’ (pre-incubation time)) [%] | Cruzain 10’ Inhibition (cruzain; 10’ (pre-incubation time)) [%] | TbrCatL 0’ Inhibition (TbrCatL; 0’ (pre-incubation time)) [%] | TbrCatL 10’ Inhibition (TbrCatL; 10’ (pre-incubation time)) [%] | further results
1 | NC(=O)c1cc(Br)ccc1OCCOc1ccccc1 [MMV687243] | 8 | 8 | -2.4 | -18 |  |  |  |  | 
2 | c1cc(C2=NCCN2)cc(-c2cc(-c3ccc(C4=NCCN4)cc3)no2)c1 [MMV688361] |  |  |  |  | 4.5 | 7.4 | 1.9 | -3.5 | 
3 | c1ccc(Oc2ccc(-c3cc(C4CCOCC4)[nH]n3)cc2)cc1 [MMV687762] | 9 | 7 | 17 | 12 |  |  |  |  | 
4 | COc1ccc(Nc2ccccc2NC(=O)c2ccc(=O)[nH]c2)cc1 [MMV676554] | 2.8 | 0.5 | 10 | 4.5 |  |  |  |  | 
5 | CC1(C)Cc2c(c(N3CCOCC3)nc3snc(Br)c23)CO1 [MMV687794] |  |  |  |  | 8 | 27 | 4.7 | 25 | 
6 | O=C(COc1cccc(F)c1)Nc1nc(-c2ccccn2)cs1 [MMV676409] | -227 |  | -77 |  |  |  |  |  | Increase in the initial velocity of the reaction (%) 5 µM using PB samples Cruzain (cruzain; [3]): 510 ± 216%; Increase in the initial velocity of the reaction (%) 5 µM using solid samples Cruzain (cruzain; 5 µM, solid samples, 10 min pre-incubation, vs DMSO control): -4 ± 2%; Increase in the initial velocity of the reaction (%) 100 µM using solid samples Cruzain (cruzain; 100 µM, solid samples, 10 min pre-incubation, vs DMSO control): 0 ± 6%; Increase in the enzyme velocity in confirmatory assays (cruzain; solid samples, varying compound concentrations): no increase in the enzyme velocity; Increase in the initial velocity of the reaction (%) 5 µM using PB samples TbrCatL (TbrCatL; [3]): 772 ± 382%; Increase in initial velocity of substrate cleavage in comparison to the DMSO control (TbrCatL; TbrCatL 10′ inc, screening at 5 µM): up to 8 fold
7 | Nc1cccnc1Nc1ccc(Cl)cc1 [MMV676524] |  |  |  |  | 4.7 | 13 | 11 | 11 | 
8 | C[C@H]1CS(=O)(=O)CCN1/N=C/c1ccc([N+](=O)[O-])o1 [MMV001499] |  |  |  |  | 7 | 7.5 | 5 | 11 | 
9 | COc1ccc(Cl)cc1NC(=O)CN(C)C(=O)c1cnn(-c2ccccc2)n1 [MMV020710] | -11 | -36 | -10 | -99 |  |  |  |  | 
10 | CC1(C)OB(O)c2ccc(C3=NOC(c4cc(Cl)c(F)c(Cl)c4)(C(F)(F)F)C3)cc21 (centres unmarked) [MMV687775] | 13 | -4 | -0.5 | -8 |  |  |  |  | 
11 | COc1cccc(NC(=O)c2c(NC(=O)c3cccnc3)sc3c2CCC3)c1 [MMV228911] |  |  |  |  |  |  |  |  | Cruzain Inhibition 0’ (cruzain; [4]): -1.4%; Cruzain Inhibition 10’ (cruzain; [5]): 4.7%; TbrCatL Inhibition 0’ (TbrCatL; [4]): -8.5%; TbrCatL Inhibition 10’ (TbrCatL; [5]): 4.5%
12 | CNC1C(OC2C(OC3C(O)C(O)C(N=C(N)N)C(O)C3N=C(N)N)OC(C)C2(O)C=O)OC(CO)C(O)C1O (centres unmarked) [MMV688994] | -4 | -2.3 | 1.1 | 1.5 |  |  |  |  | 
13 | CCCn1c(CNc2ccccc2O)nc2ccccc21 [MMV676445] | 1.2 | 3.6 | 6 | 3.3 |  |  |  |  | 
14 | Brc1cncc(-c2cc(NCCCn3ccnc3)nc(-c3ccccc3)n2)c1 [MMV661713] | 20 | 13 | 20 | 10 |  |  |  |  | 
15 | O=C(NC1CC1)c1ccc(CSCc2ccccc2Cl)o1 [MMV007803] |  |  |  |  | 0.3 | -1.7 | -6.5 | -0.2 | 
16 | CCCc1ccc(S(=O)(=O)Nc2ccc(CN3CCN(CC4CC4)CC3)cc2)cc1 [MMV688125] |  |  |  |  | 4.4 | 9 | -2.3 | -4.7 | 
17 | CCC(C)NC(=O)c1ccc(NC(=O)C2(c3ccccc3)CCCC2)cc1 (centres unmarked) [MMV146306] |  |  |  |  |  |  |  |  | Cruzain Inhibition 0’ (cruzain; [4]): 0.6%; Cruzain Inhibition 10’ (cruzain; [5]): 1.8%; TbrCatL Inhibition 0’ (TbrCatL; [4]): -3.2%; TbrCatL Inhibition 10’ (TbrCatL; [5]): -6.5%
18 | Cc1cc(OCC(=O)NCc2ccccc2)c2cc(Br)ccc2n1 [MMV687747] | 6.4 | 6 | 2 | -0.3 |  |  |  |  | 
19 | CC(C(=O)N1CCCC1)N1CCN(S(=O)(=O)c2ccc(C(C)(C)C)cc2)CC1 (centres unmarked) [MMV020291] |  |  |  |  | 2.5 | 6 | 4.3 | 8 | 
